Laboratory results as given in patent USRE47689E1, “Compounds for treating spinal muscular atrophy” (PTC Therapeutics, Inc., priority 2011, dated 2019).

Legend:
[1] = test system: SMN2 minigene (full length SMN2 minigene mRNA containing SMN2 exon 7); assay: SMN2 minigene mRNA splicing RT-qPCR assay in cultured cells; type: cell-based, human; details: Homo sapiens, HEK293-H; HEK293H cells stably transfected with SMN2-A minigene; 24 hours; 7-point concentration curve; 1.5-fold relative to vehicle-treated cells; read-out: EC1.5x for production of full length SMN2 mRNA
Method in brief: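 Lysates → one-step RT-qPCR, minigene-specific primers (0.4 μM final) + GAPDH multiplex, 40 cycles. FL/GAPDH vs DMSO; EC1.5x, star-binned.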

Smn protein = Smn protein assay in cultured cells (SMN HTRF); type: cell-based, human; details: 48 hours; for EC1.5x (concentration giving 1.5-fold Smn protein increase): SMA Type 1 patient fibroblast cells (GM03813), 7-point concentration curve, SMN HTRF, concentration producing 1.5 times Smn protein vs DMSO vehicle control, read-out: EC1.5x for Smn protein expression; for maximum fold (Fold) increase of Smn protein: SMA patient fibroblast cells, 7-point concentration data, fold increase relative to vehicle control (SMN HTRF)
Method in brief: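 Smn in SMA fibroblast lysates, measured by anti-SMN HTRF after 48 h compound exposure; EC1.5x from fold change over vehicle.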

SMILES: Cc1cn2cc(-c3cc4ccc(N(C)[C@@H]5CCN(C)C5)cc4oc3=O)nc2c(C)n1 [Compound 707, 3-(6,8-dimethylimidazo[1,2-a]pyrazin-2-yl)-7-{methyl[(3R)-1-methylpyrrolidin-3-yl]amino}-2H-chromen-2-one]
- EC (1.5-fold) [1]: < 0.1 µM
- melting point: 179 to 186 °C
- EC1.5x (concentration giving 1.5-fold Smn protein increase) (Smn protein): 300 to 1000 nM
- maximum fold (Fold) increase of Smn protein (Smn protein): **** (fold increase between >1.5 and ≤1.65)

SMILES: Cc1cn2cc(-c3cc4ccc(N5CC[C@@H](N(C)C)C5)cc4oc3=O)cc2c(C)n1 [Compound 708, 7-[(3R)-3-(dimethylamino)pyrrolidin-1-yl]-3-(1,3-dimethylpyrrolo[1,2-a]pyrazin-7-yl)-2H-chromen-2-one]
- EC (1.5-fold) [1]: < 0.1 µM
- melting point: 155 to 158 °C
- maximum fold (Fold) increase of Smn protein (Smn protein): ** (fold increase between >1.2 and ≤1.35)

SMILES: Cc1cn2cc(-c3cc4ccc(N5CCN(C(C)C)CC5)cc4oc3=O)cc2c(C)n1 [Compound 709, 3-(1,3-dimethylpyrrolo[1,2-a]pyrazin-7-yl)-7-[4-(propan-2-yl)piperazin-1-yl]-2H-chromen-2-one]
- EC (1.5-fold) [1]: < 0.1 µM
- melting point: 173 to 176 °C
- EC1.5x (concentration giving 1.5-fold Smn protein increase) (Smn protein): 300 to 1000 nM
- maximum fold (Fold) increase of Smn protein (Smn protein): **** (fold increase between >1.5 and ≤1.65)

SMILES: Cc1nc(Cl)cn2cc(-c3cc4ccc(N5CCN6CCC[C@@H]6C5)cc4oc3=O)nc12 [Compound 710, 3-(6-chloro-8-methylimidazo[1,2-a]pyrazin-2-yl)-7-[(8aR)-hexahydropyrrolo[1,2-a]pyrazin-2(1H)-yl]-2H-chromen-2-one]
- EC (1.5-fold) [1]: < 0.1 µM
- melting point: 268 to 272 °C
- maximum fold (Fold) increase of Smn protein (Smn protein): ** (fold increase between >1.2 and ≤1.35)

SMILES: Cc1nc(Cl)cn2cc(-c3cc4ccc(N5CCN6CCC[C@H]6C5)cc4oc3=O)nc12 [Compound 711, 3-(6-chloro-8-methylimidazo[1,2-a]pyrazin-2-yl)-7-[(8aS)-hexahydropyrrolo[1,2-a]pyrazin-2(1H)-yl]-2H-chromen-2-one]
- EC (1.5-fold) [1]: < 0.1 µM
- melting point: 260 to 262 °C
- EC1.5x (concentration giving 1.5-fold Smn protein increase) (Smn protein): 1000 to 3000 nM
- maximum fold (Fold) increase of Smn protein (Smn protein): *** (fold increase between >1.35 and ≤1.5)

SMILES: Cc1nc(Cl)cn2cc(-c3cc4ccc(N5CCN[C@@H](C)C5)cc4oc3=O)nc12 [Compound 713, 3-(6-chloro-8-methylimidazo[1,2-a]pyrazin-2-yl)-7-[(3S)-3-methylpiperazin-1-yl]-2H-chromen-2-one]
- EC (1.5-fold) [1]: < 0.1 µM
- melting point: 235 to 238 °C
- EC1.5x (concentration giving 1.5-fold Smn protein increase) (Smn protein): < 300 nM
- maximum fold (Fold) increase of Smn protein (Smn protein): *** (fold increase between >1.35 and ≤1.5)

SMILES: Cc1cn2cc(-c3cc4ccc(N5CCC(N(C)C)CC5)cc4oc3=O)cc2c(C)n1 [Compound 715, 7-[4-(dimethylamino)piperidin-1-yl]-3-(1,3-dimethylpyrrolo[1,2-a]pyrazin-7-yl)-2H-chromen-2-one]
- EC (1.5-fold) [1]: < 0.1 µM
- melting point: 192 to 195 °C
- maximum fold (Fold) increase of Smn protein (Smn protein): ** (fold increase between >1.2 and ≤1.35)

SMILES: Cc1cn2cc(-c3cc4ccc(N5CCC(N(C)C)CC5)cc4oc3=O)cc2cn1 [Compound 716, 7-[4-(dimethylamino)piperidin-1-yl]-3-(3-methylpyrrolo[1,2-a]pyrazin-7-yl)-2H-chromen-2-one]
- EC (1.5-fold) [1]: < 0.1 µM
- melting point: 224 to 227 °C
- EC1.5x (concentration giving 1.5-fold Smn protein increase) (Smn protein): 1000 to 3000 nM
- maximum fold (Fold) increase of Smn protein (Smn protein): **** (fold increase between >1.5 and ≤1.65)

SMILES: Cc1cn2cc(-c3cc4ccc(N5CC[C@H](N(C)C)C5)cc4oc3=O)ccc2n1 [Compound 717, 7-[(3S)-3-(dimethylamino)pyrrolidin-1-yl]-3-(2-methylimidazo[1,2-a]pyridin-6-yl)-2H-chromen-2-one]
- EC (1.5-fold) [1]: 0.3 to 1 µM
- melting point: 230 to 234 °C
- maximum fold (Fold) increase of Smn protein (Smn protein): *** (fold increase between >1.35 and ≤1.5)

SMILES: Cc1cn2cc(-c3cc4ccc(N5C[C@H]6CNC[C@H]6C5)cc4oc3=O)nc2cn1 [Compound 718, 7-[(3aR,6aS)-hexahydropyrrolo[3,4-c]pyrrol-2(1H)-yl]-3-(6-methylimidazo[1,2-a]pyrazin-2-yl)-2H-chromen-2-one]
- EC (1.5-fold) [1]: < 0.1 µM
- melting point: 282 to 292 °C
- EC1.5x (concentration giving 1.5-fold Smn protein increase) (Smn protein): < 300 nM
- maximum fold (Fold) increase of Smn protein (Smn protein): **** (fold increase between >1.5 and ≤1.65)

SMILES: Cc1cn2cc(-c3cc4ccc(N5C[C@H]6CCCN[C@H]6C5)cc4oc3=O)nc2cn1 [Compound 719, 3-(6-methylimidazo[1,2-a]pyrazin-2-yl)-7-[(4aR,7aR)-octahydro-6H-pyrrolo[3,4-b]pyridin-6-yl]-2H-chromen-2-one]
- EC (1.5-fold) [1]: < 0.1 µM
- melting point: 282 to 291 °C
- maximum fold (Fold) increase of Smn protein (Smn protein): ** (fold increase between >1.2 and ≤1.35)

SMILES: Cc1ccc2oc(-c3cc4ccc(N5C[C@@H](C)N[C@@H](C)C5)cc4oc3=O)cc2n1 [Compound 720, 7-[(3R,5S)-3,5-dimethylpiperazin-1-yl]-3-(5-methylfuro[3,2-b]pyridin-2-yl)-2H-chromen-2-one]
- EC (1.5-fold) [1]: 0.3 to 1 µM
- melting point: 179 to 183 °C
- maximum fold (Fold) increase of Smn protein (Smn protein): ** (fold increase between >1.2 and ≤1.35)

SMILES: Cc1ccc2oc(-c3cc4ccc(N5CCN6CCC[C@@H]6C5)cc4oc3=O)cc2n1 [Compound 721, 7-[(8aR)-hexahydropyrrolo[1,2-a]pyrazin-2(1H)-yl]-3-(5-methylfuro[3,2-b]pyridin-2-yl)-2H-chromen-2-one]
- EC (1.5-fold) [1]: 1 to 3 µM
- melting point: 195 to 198 °C
- maximum fold (Fold) increase of Smn protein (Smn protein): * (maximum fold increase of ≤1.2)

SMILES: Cc1ccc2oc(-c3cc4ccc(N5CCN6CCC[C@H]6C5)cc4oc3=O)cc2n1 [Compound 722, 7-[(8aS)-hexahydropyrrolo[1,2-a]pyrazin-2(1H)-yl]-3-(5-methylfuro[3,2-b]pyridin-2-yl)-2H-chromen-2-one]
- EC (1.5-fold) [1]: 1 to 3 µM
- melting point: 228 to 230 °C
- maximum fold (Fold) increase of Smn protein (Smn protein): * (maximum fold increase of ≤1.2)

SMILES: Cc1cn2cc(-c3cc4ccc(N5CC[C@H](NC(=O)OC(C)(C)C)C5)cc4oc3=O)cc2c(C)n1 [Compound 724, tert-butyl {(3S)-1-[3-(1,3-dimethylpyrrolo[1,2-a]pyrazin-7-yl)-2-oxo-2H-chromen-7-yl]pyrrolidin-3-yl}carbamate]
- EC (1.5-fold) [1]: 1 to 3 µM
- melting point: 193 to 196 °C
- maximum fold (Fold) increase of Smn protein (Smn protein): * (maximum fold increase of ≤1.2)

SMILES: Cc1cn2cc(-c3cc4ccc(N5CC[C@H](NC(C)C)C5)cc4oc3=O)cc2c(C)n1 [Compound 725, 3-(1,3-dimethylpyrrolo[1,2-a]pyrazin-7-yl)-7-[(3S)-3-(propan-2-ylamino)pyrrolidin-1-yl]-2H-chromen-2-one]
- EC (1.5-fold) [1]: < 0.1 µM
- melting point: 217 to 220 °C
- EC1.5x (concentration giving 1.5-fold Smn protein increase) (Smn protein): 300 to 1000 nM
- maximum fold (Fold) increase of Smn protein (Smn protein): *** (fold increase between >1.35 and ≤1.5)

SMILES: Cc1nc(Cl)cn2cc(-c3cc4ccc(N5CCN(C)[C@H](C)C5)cc4oc3=O)nc12 [Compound 726, 3-(6-chloro-8-methylimidazo[1,2-a]pyrazin-2-yl)-7-[(3R)-3,4-dimethylpiperazin-1-yl]-2H-chromen-2-one]
- EC (1.5-fold) [1]: < 0.1 µM
- melting point: 250 to 252 °C
- EC1.5x (concentration giving 1.5-fold Smn protein increase) (Smn protein): 300 to 1000 nM
- maximum fold (Fold) increase of Smn protein (Smn protein): **** (fold increase between >1.5 and ≤1.65)
